Source: patent US3996359A, “Novel stereoisomeric component A of stereoisomeric mixtures of 2'-unsymmetrical 16,17-methylenedioxy steroid 21-acylates, compositions thereof, and method of treating therewith” (AB Bofors, priority 1972, dated 1976)

Tested on: rats subjected to adrenalectomy (granuloma around implanted cotton wads)
Assay: granulom test (cotton-pellet test) on rats subjected to adrenalectomy: granuloma growth, thymus weight, body weight increase
Format: in vivo, rat (Sprague-Dawley)
Details: for Dose required to obtain 50% inhibition of Granuloma growth: Table 3, adrenalectomized young male Sprague-Dawley rats, topical in implanted cotton wads, day 8; for Dose required to obtain 25% inhibition of Body weight Increase / Dose required to obtain 50% inhibition of Thymus weight: 11520 min

Row | Compound | Dose required to obtain 50% inhibition of Granuloma growth | Therapeutic ratio body weight/granuloma (Table 4, ED25 body weight increase inhibition over ED50 granuloma formation inhibition) | Therapeutic ratio thymus/granuloma (Table 4, ED50 thymus weight inhibition divided by ED50 granuloma formation inhibition) | ED25 body weight increase inhibition (rat, in vivo) | ED50 thymus weight inhibition (rat, in vivo) | Dose required to obtain 25% inhibition of Body weight Increase (rat, in vivo) | Dose required to obtain 50% inhibition of Thymus weight (rat, in vivo)
1 | CC1O[C@@H]2C[C@H]3[C@@H]4CCC5=CC(=O)C=C[C@]5(C)[C@@]4(F)[C@@H](O)C[C@]3(C)[C@]2(C(=O)COC(=O)c2cc3ccccc3o2)O1 (stereo partly shown) [16 B] | 3 γ/animal | 3.3 | 3.3 | 10 µg/animal | 10 µg/animal | 10 γ/animal | 10 γ/animal
2 | CCCC1O[C@@H]2C[C@H]3[C@@H]4C[C@H](F)C5=CC(=O)C=C[C@]5(C)[C@@]4(F)[C@@H](O)C[C@]3(C)[C@]2(C(=O)CO)O1 (single isomer, unassigned) [8 B] | 4 γ/animal |  |  |  |  | 50 γ/animal | 10 γ/animal
